Measurements reported in PubChem BioAssay AID2060604 (Molecular Pharmacology Branch, DTP, NCI, 2025).

Test system: 379773-124-R-J2-PDC complex spheroids, viability % test/control
Assay: Anticancer human tumor 379773-124-R-J2-PDC patient-derived endometrial carcinoma cell line growth inhibition [CLK]
Details: for IC50: curve of first compound; for viability, T/C: stronger effect = lower value
Source text: A high-throughput screen of multi-cell type tumor spheroids was designed to identify active combinations of […] and targeted small molecules. Complex spheroids include a stromal component modeled by human endothelial cells (HUVEC) and fibroblasts modeled by human mesenchymal stem cells (MSCs). The concentration ranges selected for each drug and investigational agent were based upon clinically achievable concentrations if the clinical Cmax of the agent was known.
Compounds. The drugs and investigational agents: cirtuvivint (SM08502; NSC835563), CC-671 (NSC850746), vemurafenib (NSC761431), tapotoclax (NSC804041), sotorasib (NSC818433), adagrasib (NSC831453), MRTX-1133 (NSC836407), BAY2416964 (NSC825713), copanlisib (NSC816437), inavolisib (NSC800729), abemaciclib (NSC768073), osimertinib (NSC779217), entinostat (NSC756642), eltanexor (KPT-8602, NSC794443), venetoclax (NSC766270), ceralasertib (NSC777638), bortezomib (NSC756655), olaparib (NSC753686), talazoparib (NSC767125), alisertib (NSC759677), peposertib (NSC802822), gemcitabine (NSC613327), 5-fluorouracil (NSC19893), SN-38 (NSC673596), oxaliplatin (NSC266046), paclitaxel (NSC125973), and doxorubicin (NSC123127), were obtained from the National Cancer Institute (NCI) Developmental Therapeutics Program Chemical Repository. The FDA-approved anticancer drug set is available from the Developmental Therapeutics Program at https://dtp.cancer.gov/organization/dscb/obtaining/available plates.htm. […] The stock solutions were prepared in dimethyl sulfoxide (DMSO, Sigma-Aldrich, St. Louis, MO, cat. D2650), except for the platinum complexes which were prepared in saline (Quality Biological, Gaithersburg, MD, cat. 114-055-101), at 800-fold the tested concentration and stored at -70 degrees C prior to their use. All drugs and investigational agents were tested over a range starting from a high concentration at or near the clinical Cmax and decreasing in half-log increments. If the clinical Cmax for an agent had not been determined, the highest concentration tested was 10 microM.
Cell Culture. All cells were maintained in an incubator at 37 degrees C and 5% CO2 with 95% humidity. The PDC lines were cultured according to standard operating procedures established by the NCI PDMR. Briefly, all PDCs were thawed and cultured in Matrigel-coated flasks prepared with a working solution of 1X Ham's F-12 nutrient mix, without supplementation (Invitrogen, Waltham, MA, cat. 11765054), 100 U/mL penicillin-streptomycin (Invitrogen, cat. 15140122), and 2.5% Matrigel (Corning Inc., Corning, NY, cat. 354248) for the first three passages. The 947758-054-R-J2-PDC line was cultured in 6B/Colon 1A media, which includes advanced DMEM/F-12 (Thermo Fisher Scientific, cat. 12634028), 10 mM HEPES (Thermo Fisher Scientific, cat. 15630080), 1X GlutaMAX supplement (Thermo Fisher Scientific, cat. 35050061), 0.1 mg/mL primocin (InvivoGen, cat. ant-pm-2), 10% defined fetal bovine serum, heat inactivated (HyClone Laboratories Inc., cat. SH30070.03HI), 1.25 mM N-Acetyl-L-cysteine (Sigma-Aldrich, cat. A9165), 10 mM nicotinamide (Sigma-Aldrich, cat. N0636), 1X B-27 supplement (Thermo Fisher Scientific, cat. 17504044), 1X N-2 supplement (Thermo Fisher Scientific, cat. 17502048), and 10 microM Y-27632 dihydrochloride (Tocris Bioscience, cat. 1254). The 876862-298-R-J1-PDC was cultured in 6E media, which includes all 6B/Colon 1A media components plus 50% L-WRN conditioned media (ATCC, cat. CRL-3276), 50 ng/mL recombinant human EGF recombinant protein (hEGF; Thermo Fisher Scientific, cat. PHG0311), 10 ng/mL recombinant human fibroblast growth factor 10 (hGFG-10; PeproTech, cat. 100-26), 1 ng/mL recombinant human fibroblast growth factor 2 (hFGF-2; PeproTech, cat. 100-18B), and 1 µM prostaglandin E2 (PGE2; Tocris, cat. 2296). The 227483-062-R1-J1-PDC line was cultured in Panc media, containing all 6E components except hFGF-2, with the addition of 500 nM SB-431542 (Selleckchem, cat. S1067) and 10 nM gastrin (Tocris, cat. 3006). […]

[1] = second compound 0.0316 µM, first compound 0.0316 µM
[2] = second compound 0.0316 µM, first compound 0.1 µM
[3] = second compound 0.0316 µM, first compound 0.316 µM
[4] = second compound 0.0316 µM, first compound 1 µM
[5] = second compound 0.0316 µM, first compound 3.16 µM
[6] = second compound 0.0316 µM, first compound 10 µM
[7] = second compound 0.1 µM, first compound 0.0316 µM
[8] = second compound 0.1 µM, first compound 0.1 µM
[9] = second compound 0.1 µM, first compound 0.316 µM
[10] = second compound 0.1 µM, first compound 1 µM
[11] = second compound 0.1 µM, first compound 3.16 µM
[12] = second compound 0.1 µM, first compound 10 µM
[13] = second compound 0.316 µM, first compound 0.0316 µM
[14] = second compound 0.316 µM, first compound 0.1 µM
[15] = second compound 0.316 µM, first compound 0.316 µM
[16] = second compound 0.316 µM, first compound 1 µM
[17] = second compound 0.316 µM, first compound 3.16 µM
[18] = second compound 0.316 µM, first compound 10 µM
[19] = second compound 1 µM, first compound 0.0316 µM
[20] = second compound 1 µM, first compound 0.1 µM
[21] = second compound 1 µM, first compound 0.316 µM
[22] = second compound 1 µM, first compound 1 µM
[23] = second compound 1 µM, first compound 3.16 µM
[24] = second compound 1 µM, first compound 10 µM
[25] = second compound 3.16 µM, first compound 0.0316 µM
[26] = second compound 3.16 µM, first compound 0.1 µM
[27] = second compound 3.16 µM, first compound 0.316 µM
[28] = second compound 3.16 µM, first compound 1 µM
[29] = second compound 3.16 µM, first compound 3.16 µM
[30] = second compound 3.16 µM, first compound 10 µM
[31] = second compound 10 µM, first compound 0.0316 µM
[32] = second compound 10 µM, first compound 0.1 µM
[33] = second compound 10 µM, first compound 0.316 µM
[34] = second compound 10 µM, first compound 1 µM
[35] = second compound 10 µM, first compound 3.16 µM
[36] = second compound 10 µM, first compound 10 µM
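Note: compound exposure lasted seven days before the viability readout.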
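Throughout, for viability, T/C: 100% = DMSO vehicle control wells.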

With C#Cc1c(F)ccc2cc(O)cc(-c3ncc4c(N5CC6CCC(C5)N6)nc(OCC56CCCN5CC(F)C6)nc4c3F)c12 (centres undefined) + CN1CCN(c2cc(C(=O)Nc3cc4cc(-c5cnn(C)c5)ccc4cn3)ccn2)CC1 the IC50 (second compound 0.0316 µM) was over 10000 nM, the IC50 (second compound 0.1 µM) was over 10000 nM and the IC50 (second compound 0.316 µM) was under 31.6 nM. For the same molecule, the IC50 (second compound 1 µM) was under 31.6 nM, the IC50 (second compound 3.16 µM) was under 31.6 nM and the IC50 (second compound 10 µM) was under 31.6 nM. The viability, T/C [1] was 88.4%, the viability, T/C [2] was 91.4% and the viability, T/C [3] was 93%. For the same molecule, the viability, T/C [4] was 87.5%, the viability, T/C [5] was 103% and the viability, T/C [6] was 99.3%. It also gave a viability, T/C [7] of 89.7%, a viability, T/C [8] of 84.5% and a viability, T/C [9] of 75.7%. It also gave a viability, T/C [10] of 77%, a viability, T/C [11] of 99.1% and a viability, T/C [12] of 72.8%. For the same molecule, the viability, T/C [13] was 35.7%, the viability, T/C [14] was 27.4% and the viability, T/C [15] was 35.1%. For the same molecule, the viability, T/C [16] was 33.3%, the viability, T/C [17] was 32.5% and the viability, T/C [18] was 28.4%. The viability, T/C [19] was 0.19%, the viability, T/C [20] was 0.22% and the viability, T/C [21] was 0.24%. It also gave a viability, T/C [22] of 1.34%, a viability, T/C [23] of 0.78% and a viability, T/C [24] of 0.14%. It also gave a viability, T/C [25] of 0.14%, a viability, T/C [26] of 2.72% and a viability, T/C [27] of 0.76%. It also gave a viability, T/C [28] of 2.34%, a viability, T/C [29] of 1.68% and a viability, T/C [30] of 1.37%. For the same molecule, the viability, T/C [31] was 2.32%, the viability, T/C [32] was 0.23% and the viability, T/C [33] was 0.32%. It also gave a viability, T/C [34] of 3.73%, a viability, T/C [35] of 1.56% and a viability, T/C [36] of 0.31%.
CC(CO)NC(=O)c1cc(-c2ccc(Cl)cc2)nn(-c2cnn(C)c2)c1=O (centres undefined) + CN1CCN(c2cc(C(=O)Nc3cc4cc(-c5cnn(C)c5)ccc4cn3)ccn2)CC1 was tested, and the IC50 (second compound 0.0316 µM) was over 10000 nM, the IC50 (second compound 0.1 µM) was over 10000 nM and the IC50 (second compound 0.316 µM) was under 31.6 nM. It also gave an IC50 (second compound 1 µM) of under 31.6 nM, an IC50 (second compound 3.16 µM) of under 31.6 nM and an IC50 (second compound 10 µM) of under 31.6 nM. The viability, T/C [1] was 100%, the viability, T/C [2] was 86.8% and the viability, T/C [3] was 90.3%. For the same molecule, the viability, T/C [4] was 102%, the viability, T/C [5] was 102% and the viability, T/C [6] was 66.5%. The viability, T/C [7] was 96.9%, the viability, T/C [8] was 86.3% and the viability, T/C [9] was 79.8%. The viability, T/C [10] was 105%, the viability, T/C [11] was 75.1% and the viability, T/C [12] was 52.9%. For the same molecule, the viability, T/C [13] was 24.6%, the viability, T/C [14] was 27.9% and the viability, T/C [15] was 33.9%. For the same molecule, the viability, T/C [16] was 32.1%, the viability, T/C [17] was 32.6% and the viability, T/C [18] was 24.4%. It also gave a viability, T/C [19] of 0.57%, a viability, T/C [20] of 0.17% and a viability, T/C [21] of 0.46%. For the same molecule, the viability, T/C [22] was 0.65%, the viability, T/C [23] was 0.68% and the viability, T/C [24] was 0.88%. For the same molecule, the viability, T/C [25] was 1.45%, the viability, T/C [26] was 0.87% and the viability, T/C [27] was 0.16%. It also gave a viability, T/C [28] of 2.5%, a viability, T/C [29] of 1.79% and a viability, T/C [30] of 1.37%. It also gave a viability, T/C [31] of 0.55%, a viability, T/C [32] of 0.23% and a viability, T/C [33] of 0.2%. For the same molecule, the viability, T/C [34] was 0.85%, the viability, T/C [35] was 0.23% and the viability, T/C [36] was 0.65%.
